From ChEMBL document CHEMBL1135422 (J Med Chem, 2002)

How the values were obtained:
[1] = molecular target: Cholinesterase (Homo sapiens, UniProt P06276)
[2] = molecular target: T1, Acetylcholinesterase (Rattus norvegicus, UniProt P37136); test: biochemical
T1 sequence (P37136 whole entry): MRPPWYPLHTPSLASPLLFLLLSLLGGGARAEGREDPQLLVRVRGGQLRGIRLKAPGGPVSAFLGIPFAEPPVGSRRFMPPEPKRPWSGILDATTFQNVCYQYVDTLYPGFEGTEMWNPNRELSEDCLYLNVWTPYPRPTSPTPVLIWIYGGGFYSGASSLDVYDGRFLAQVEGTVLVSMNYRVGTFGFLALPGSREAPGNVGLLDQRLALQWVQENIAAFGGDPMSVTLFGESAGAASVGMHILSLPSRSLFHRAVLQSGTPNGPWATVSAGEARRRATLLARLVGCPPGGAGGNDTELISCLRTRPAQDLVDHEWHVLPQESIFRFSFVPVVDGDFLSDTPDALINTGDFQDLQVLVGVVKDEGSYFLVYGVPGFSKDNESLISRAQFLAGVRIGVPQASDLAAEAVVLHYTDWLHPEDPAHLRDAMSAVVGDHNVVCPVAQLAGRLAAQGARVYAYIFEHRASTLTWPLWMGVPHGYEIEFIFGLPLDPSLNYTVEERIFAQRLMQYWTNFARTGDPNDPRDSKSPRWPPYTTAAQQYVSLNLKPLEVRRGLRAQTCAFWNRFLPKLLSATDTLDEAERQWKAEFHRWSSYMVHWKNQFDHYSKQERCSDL

Chain of Cholinesterase (P06276 whole entry): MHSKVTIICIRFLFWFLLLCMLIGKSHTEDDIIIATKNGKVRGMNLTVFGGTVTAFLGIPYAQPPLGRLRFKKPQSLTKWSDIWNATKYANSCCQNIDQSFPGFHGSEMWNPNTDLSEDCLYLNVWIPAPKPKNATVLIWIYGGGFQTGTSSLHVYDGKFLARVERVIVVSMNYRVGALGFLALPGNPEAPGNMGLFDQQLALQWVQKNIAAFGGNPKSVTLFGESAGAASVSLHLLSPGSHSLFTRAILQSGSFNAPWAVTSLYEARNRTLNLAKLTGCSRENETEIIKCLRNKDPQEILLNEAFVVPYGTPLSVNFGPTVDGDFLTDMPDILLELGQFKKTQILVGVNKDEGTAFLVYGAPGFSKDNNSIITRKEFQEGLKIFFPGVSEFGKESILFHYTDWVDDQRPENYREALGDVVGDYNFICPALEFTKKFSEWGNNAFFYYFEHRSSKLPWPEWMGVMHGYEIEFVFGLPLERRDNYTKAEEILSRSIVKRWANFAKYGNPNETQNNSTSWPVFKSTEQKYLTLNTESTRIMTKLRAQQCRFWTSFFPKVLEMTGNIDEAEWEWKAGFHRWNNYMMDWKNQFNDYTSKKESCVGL

| Structure (SMILES) | IC50 [1] [nM] | IC50 [2] [nM] |
| --- | --- | --- |
| c1ccc2c(NCCCCCCCCNc3c4c(nc5ccccc35)CCCCC4)c3c(nc2c1)CCCCC3 | 3.8 | – |
| c1cnc2nc3c(c(NCCCCCCCCNc4c5c(nc6ncccc46)CCCC5)c2c1)CCCC3 | 23 | – |
| c1ccc2c(NCCCCCCNc3c4c(nc5ccccc35)CCC4)c3c(nc2c1)CCC3 | 273 | – |
| c1ccc2c(NCCCCCCCCNc3c4c(nc5ccccc35)CCCC4)c3c(nc2c1)CCCC3 | 53 | 1.6 |
| c1cnc2nc3c(c(NCCCCCCNc4c5c(nc6ncccc46)CCCC5)c2c1)CCCC3 | 93 | – |
| Fc1ccc2c(NCCCCCCCNc3c4c(nc5cc(F)ccc35)CCCC4)c3c(nc2c1)CCCC3 | 257 | 0.6 |
| c1ccc2c(NCCCCCCNc3c4c(nc5ccccc35)CCCC4)c3c(nc2c1)CCCC3 | 83 | 1.4 |
| c1ccc2c(NCCCCCCNc3c4c(nc5ccccc35)CCCCC4)c3c(nc2c1)CCCCC3 | 3.3 | 2.5 |
| c1ccc2c(NCCCCCCCCNc3c4c(nc5ccccc35)CCC4)c3c(nc2c1)CCC3 | 165 | – |
| Fc1ccc2c(NCCCCCCNc3c4c(nc5cc(F)ccc35)CCCC4)c3c(nc2c1)CCCC3 | 45 | 0.9 |
| c1ccc2c(NCCCCCCCNc3c4c(nc5ccccc35)CCC4)c3c(nc2c1)CCC3 | 328 | 75 |
| c1ccc2c(NCCCCCCCNc3c4c(nc5ccccc35)CCCCC4)c3c(nc2c1)CCCCC3 | 2.6 | – |
| c1cnc2nc3c(c(NCCCCCCCNc4c5c(nc6ncccc46)CCCC5)c2c1)CCCC3 | 59 | 1.3 |
| c1ccc2c(NCCCCCCCNc3c4c(nc5ccccc35)CCCC4)c3c(nc2c1)CCCC3 | 54 | – |
| Clc1ccc2c(NCCCCCCCNc3c4c(nc5cc(Cl)ccc35)CCCC4)c3c(nc2c1)CCCC3 | 26 | 0.07 |
| Fc1ccc2c(NCCCCCCCCNc3c4c(nc5cc(F)ccc35)CCCC4)c3c(nc2c1)CCCC3 | 164 | 0.7 |
| Clc1ccc2c(NCCCCCCNc3c4c(nc5cc(Cl)ccc35)CCCC4)c3c(nc2c1)CCCC3 | 312 | 0.6 |
